Source: patent publication US10160755B2 (Plexxikon Inc., priority 2015, dated 2018)

Key:
c-Kit = c-Kit (Homo sapiens, UniProt P10721); test: c-Kit biochemical assay (per US 2007/0032519)
Outline: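 Biochemical kinase inhibition run per US 2007/0032519; values reported as binned IC50 ranges (0.0001–1 μM, 1–10 μM, 10–200 μM).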

[1] = molecular target: T1, BA/F3-FLT3-ITD + F691L cells (Homo sapiens, UniProt P36888, F691L, cells depend on it, form not given); test: BA/F3-FLT3-ITD + F691L cell proliferation assay (CellTiter-Glo); assay type: cell-based, murine; details: BaF3 FLT3 ITD/F691L cells; read-out: Cell Activity (IC50 μM) BaF3_FLT3_ITD/F691L
T1 sequence (P36888 1-993 F691L): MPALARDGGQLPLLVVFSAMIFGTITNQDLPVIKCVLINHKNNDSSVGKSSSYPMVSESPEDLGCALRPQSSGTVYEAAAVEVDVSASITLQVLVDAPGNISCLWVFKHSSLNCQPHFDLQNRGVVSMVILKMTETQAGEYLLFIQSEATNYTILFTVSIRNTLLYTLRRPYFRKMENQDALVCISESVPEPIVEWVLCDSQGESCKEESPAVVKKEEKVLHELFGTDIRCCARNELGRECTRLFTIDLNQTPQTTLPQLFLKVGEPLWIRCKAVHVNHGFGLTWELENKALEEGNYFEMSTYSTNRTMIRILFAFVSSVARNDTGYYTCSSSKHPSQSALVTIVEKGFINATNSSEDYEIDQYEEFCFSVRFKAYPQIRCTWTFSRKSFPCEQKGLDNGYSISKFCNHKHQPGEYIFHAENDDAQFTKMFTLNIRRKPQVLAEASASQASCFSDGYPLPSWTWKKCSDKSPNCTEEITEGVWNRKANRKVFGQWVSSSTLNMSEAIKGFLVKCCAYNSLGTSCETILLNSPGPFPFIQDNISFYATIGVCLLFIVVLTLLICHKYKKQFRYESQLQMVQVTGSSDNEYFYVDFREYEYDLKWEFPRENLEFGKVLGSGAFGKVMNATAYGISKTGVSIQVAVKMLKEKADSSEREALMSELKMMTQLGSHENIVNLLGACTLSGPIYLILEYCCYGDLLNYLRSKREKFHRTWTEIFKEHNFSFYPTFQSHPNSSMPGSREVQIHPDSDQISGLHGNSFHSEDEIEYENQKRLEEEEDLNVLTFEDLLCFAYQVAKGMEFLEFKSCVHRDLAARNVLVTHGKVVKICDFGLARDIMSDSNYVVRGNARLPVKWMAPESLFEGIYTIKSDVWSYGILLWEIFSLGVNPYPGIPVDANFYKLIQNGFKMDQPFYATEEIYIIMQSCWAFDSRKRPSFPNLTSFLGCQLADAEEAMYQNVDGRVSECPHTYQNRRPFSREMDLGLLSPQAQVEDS
Outline: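 Murine BA/F3 cells transfected with full-length FLT3 carrying ITD plus D835Y or F691L, grown without IL-3 so growth depends on FLT3. Seeded at 1×10^4 cells/well and dosed with 8 points, 10 to 0.0046 μM, 0.2% DMSO, for three days at 37 °C. IC50 from CellTiter-Glo luminescence (ATP content).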

c-Kit, sequence (P10721 26-976): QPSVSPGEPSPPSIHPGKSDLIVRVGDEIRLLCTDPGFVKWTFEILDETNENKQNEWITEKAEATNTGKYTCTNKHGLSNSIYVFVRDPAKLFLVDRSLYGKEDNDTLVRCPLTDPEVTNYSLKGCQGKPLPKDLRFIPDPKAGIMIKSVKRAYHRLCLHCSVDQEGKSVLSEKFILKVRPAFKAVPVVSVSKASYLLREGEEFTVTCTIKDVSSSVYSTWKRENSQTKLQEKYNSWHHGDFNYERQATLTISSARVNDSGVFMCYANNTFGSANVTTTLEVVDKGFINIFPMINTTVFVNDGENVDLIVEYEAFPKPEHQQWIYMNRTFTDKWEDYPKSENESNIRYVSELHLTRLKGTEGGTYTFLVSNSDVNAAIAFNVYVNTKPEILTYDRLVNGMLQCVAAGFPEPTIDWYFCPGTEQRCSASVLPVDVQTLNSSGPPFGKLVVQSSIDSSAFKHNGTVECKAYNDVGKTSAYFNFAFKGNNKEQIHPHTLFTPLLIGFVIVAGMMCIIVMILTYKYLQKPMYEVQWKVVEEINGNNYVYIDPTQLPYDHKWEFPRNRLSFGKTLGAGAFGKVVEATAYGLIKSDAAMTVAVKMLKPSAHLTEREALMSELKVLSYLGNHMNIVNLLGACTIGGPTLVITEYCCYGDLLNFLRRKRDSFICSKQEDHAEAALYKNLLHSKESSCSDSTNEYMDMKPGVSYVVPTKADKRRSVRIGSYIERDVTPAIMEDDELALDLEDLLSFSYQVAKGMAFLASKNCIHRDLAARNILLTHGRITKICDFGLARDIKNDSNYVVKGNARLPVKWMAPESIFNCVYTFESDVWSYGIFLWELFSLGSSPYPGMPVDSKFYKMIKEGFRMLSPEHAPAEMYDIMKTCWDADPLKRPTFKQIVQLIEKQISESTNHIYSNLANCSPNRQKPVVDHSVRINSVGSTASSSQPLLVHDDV

Row | SMILES | IC50 (c-Kit) [µM] | GI50 [1] [µM]
1 | N#Cc1cccc(NC(=O)c2cnc3[nH]cc(-c4ccc5ncn(C6CCCNC6)c5c4)c3c2)c1 (stereo not drawn) [P-219, N-(3-cyanophenyl)-3-(1-(piperidin-3-yl)-1H-benzo[d]imidazol-6-yl)-1H-pyrrolo[2,3-b]pyridine-5-carboxamide] | – | 1 to 10
2 | N#Cc1cccc(C(=O)Nc2cnc3[nH]cc(-c4ccc5ncn(C6CCCNC6)c5c4)c3c2)c1 (stereo not drawn) [P-236, 3-cyano-N-[3-[3-(3-piperidyl)benzimidazol-5-yl]-1H-pyrrolo[2,3-b]pyridin-5-yl]benzamide] | – | 0.0001 to 1
3 | CC(C)(C)n1cnc2ccc(-c3c[nH]c4ncc(-c5cccc(S(=O)(=O)N6CCCC6)c5)cc34)cc21 [P-220, 1-tert-butyl-6-[5-(3-pyrrolidin-1-ylsulfonylphenyl)-1H-pyrrolo[2,3-b]pyridin-3-yl]benzimidazole] | – | 0.0001 to 1
4 | O=S(=O)(c1cccc(-c2cnc3[nH]cc(-c4ccc5ncn(C6CCCNC6)c5c4)c3c2)c1)N1CCCC1 (stereo not drawn) [P-222, 1-(3-piperidyl)-6-[5-(3-pyrrolidin-1-ylsulfonylphenyl)-1H-pyrrolo[2,3-b]pyridin-3-yl]benzimidazole] | – | 0.0001 to 1
5 | CCCS(=O)(=O)Nc1cccc(-c2cnc3[nH]cc(-c4ccc5ncn(C(C)(C)C)c5c4)c3c2)c1 [P-216, N-[3-[3-(3-tert-butylbenzimidazol-5-yl)-1H-pyrrolo[2,3-b]pyridin-5-yl]phenyl]propane-1-sulfonamide] | – | 0.0001 to 1
6 | COc1cnc2[nH]cc(-c3ccc4ncn(Cc5ccc(F)cc5)c4c3)c2c1 [P-110, 1-[(4-fluorophenyl)methyl]-6-(5-methoxy-1H-pyrrolo[2,3-b]pyridin-3-yl)benzimidazole] | – | 0.0001 to 1
7 | COc1cc(-c2cnc3[nH]cc(-c4ccc5ncn(C(C)(C)CO)c5c4)c3n2)ccn1 [P-186, 2-[6-[2-(2-methoxy-4-pyridyl)-5H-pyrrolo[2,3-b]pyrazin-7-yl]benzimidazol-1-yl]-2-methyl-propan-1-ol] | – | 0.0001 to 1
8 | COc1cc(-c2cnc3[nH]nc(-c4ccc5ncn(C(C)(C)C)c5c4)c3c2)ccn1 [P-272, 3-(1-(tert-butyl)-1H-benzo[d]imidazol-6-yl)-5-(2-methoxypyridin-4-yl)-1H-pyrazolo[3,4-b]pyridine] | – | 0.0001 to 1
9 | CCCS(=O)(=O)Nc1cccc(-c2cnc3[nH]cc(-c4ccc5ncn(C(C)(C)C)c5c4)c3n2)c1 [P-225, N-[3-[7-(3-tert-butylbenzimidazol-5-yl)-5H-pyrrolo[2,3-b]pyrazin-2-yl]phenyl]propane-1-sulfonamide] | – | 0.0001 to 1
10 | COC(=O)N1CCCC(n2cnc3ccc(-c4c[nH]c5ncc(-c6ccnc(OC)c6)nc45)cc32)C1 (stereo not drawn) [P-261, methyl 3-(6-(2-(2-methoxypyridin-4-yl)-5H-pyrrolo[2,3-b]pyrazin-7-yl)-1H-benzo[d]imidazol-1-yl)piperidine-1-carboxylate] | – | 0.0001 to 1
11 | COc1cc(-c2cnc3[nH]cc(-c4ccc5ncn(C(C)(C)C)c5c4)c3c2)ccn1 [P-106, 1-tert-butyl-6-[5-(2-methoxy-4-pyridyl)-1H-pyrrolo[2,3-b]pyridin-3-yl]benzimidazole] | – | 0.0001 to 1
12 | CN(c1cccc(-c2cnc3[nH]cc(-c4ccc5ncn(C)c5c4)c3n2)c1)S(C)(=O)=O [P-150, N-methyl-N-[3-[7-(3-methylbenzimidazol-5-yl)-5H-pyrrolo[2,3-b]pyrazin-2-yl]phenyl]methanesulfonamide] | – | 0.0001 to 1
13 | CC(C)(C)n1cnc2ccc(-c3c[nH]c4ncc(C#Cc5cccc(C#N)c5)cc34)cc21 [P-242, 3-[2-[3-(3-tert-butylbenzimidazol-5-yl)-1H-pyrrolo[2,3-b]pyridin-5-yl]ethynyl]benzonitrile] | – | 1 to 10
14 | CC(C)(C)n1cnc2ccc(-c3c[nH]c4ncc(-c5cnn(CC(F)(F)F)c5)nc34)cc21 [P-256, 7-(3-tert-butylbenzimidazol-5-yl)-2-[1-(2,2,2-trifluoroethyl)pyrazol-4-yl]-5H-pyrrolo[2,3-b]pyrazine] | – | 0.0001 to 1
15 | CC(C)(C)n1cnc2ccc(-c3c[nH]c4ncc(-c5cnn(CC(F)(F)F)c5)cc34)cc21 [P-252, 1-tert-butyl-6-[5-[1-(2,2,2-trifluoroethyl)pyrazol-4-yl]-1H-pyrrolo[2,3-b]pyridin-3-yl]benzimidazole] | – | 0.0001 to 1

The next lines start with the values.

Row | IC50 (c-Kit) [µM] | GI50 [1] [µM] | SMILES
16 | 1 to 10 | 0.0001 to 1 | CN(c1cccc(-c2cnc3[nH]cc(-c4ccc5ncn(C)c5c4)c3c2)c1)S(C)(=O)=O [P-120, N-methyl-N-[3-[3-(3-methylbenzimidazol-5-yl)-1H-pyrrolo[2,3-b]pyridin-5-yl]phenyl]methanesulfonamide]
17 | – | 0.0001 to 1 | C#Cc1cnc2[nH]cc(-c3ccc4ncn(C(C)(C)C)c4c3)c2c1 [P-244, 1-tert-butyl-6-(5-ethynyl-1H-pyrrolo[2,3-b]pyridin-3-yl)benzimidazole]
18 | – | 0.0001 to 1 | COc1cc(-c2cnc3[nH]cc(-c4ccc5ncn(C6CCCN(C(C)=O)C6)c5c4)c3n2)ccn1 (stereo not drawn) [P-260, 1-[3-[6-[2-(2-methoxy-4-pyridyl)-5H-pyrrolo[2,3-b]pyrazin-7-yl]benzimidazol-1-yl]-1-piperidyl]ethanone]
19 | – | 0.0001 to 1 | COc1cc(C#Cc2cnc3[nH]cc(-c4ccc5ncn(C(C)(C)C)c5c4)c3c2)ccn1 [P-240, 1-(tert-butyl)-6-(5-((2-methoxypyridin-4-yl)ethynyl)-1H-pyrrolo[2,3-b]pyridin-3-yl)-1H-benzo[d]imidazole]
20 | – | 0.0001 to 1 | FC(F)n1cc(-c2cnc3[nH]cc(-c4ccc5ncn(C6CCCNC6)c5c4)c3n2)cn1 (stereo not drawn) [P-257, 2-[1-(difluoromethyl)pyrazol-4-yl]-7-[3-(3-piperidyl)benzimidazol-5-yl]-5H-pyrrolo[2,3-b]pyrazine]
21 | – | 0.0001 to 1 | N#Cc1cc(-c2cnc3[nH]cc(-c4ccc5ncn(C6CCCNC6)c5c4)c3c2)ccc1F (stereo not drawn) [P-208, 2-fluoro-5-[3-[3-(3-piperidyl)benzimidazol-5-yl]-1H-pyrrolo[2,3-b]pyridin-5-yl]benzonitrile]
22 | – | 0.0001 to 1 | COc1cc(C#Cc2cnc3[nH]cc(-c4ccc5ncn(C6CCCNC6)c5c4)c3c2)ccn1 (stereo not drawn) [P-241, 5-[2-(2-methoxy-4-pyridyl)ethynyl]-3-[3-(3-piperidyl)benzimidazol-5-yl]-1H-pyrrolo[2,3-b]pyridine]
23 | – | 0.0001 to 1 | COc1cc(-c2cnc3[nH]cc(-c4ccc5ncn(C6CCCN(C)C6)c5c4)c3n2)ccn1 (stereo not drawn) [P-271, 2-(2-methoxy-4-pyridyl)-7-[3-(1-methyl-3-piperidyl)benzimidazol-5-yl]-5H-pyrrolo[2,3-b]pyrazine]
24 | – | 0.0001 to 1 | CC(C)(CO)n1cnc2ccc(-c3c[nH]c4ncc(-c5cccc(NS(C)(=O)=O)c5)nc34)cc21 [P-115, N-[3-[7-[3-(2-hydroxy-1,1-dimethyl-ethyl)benzimidazol-5-yl]-5H-pyrrolo[2,3-b]pyrazin-2-yl]phenyl]methanesulfonamide]
25 | – | 0.0001 to 1 | COc1cc(-c2cnc3[nH]cc(-c4ccc5ncn([C@@H]6CCCNC6)c5c4)c3n2)ccn1 [P-254, 2-(2-methoxy-4-pyridyl)-7-[3-[(3R)-3-piperidyl]benzimidazol-5-yl]-5H-pyrrolo[2,3-b]pyrazine]
26 | – | 0.0001 to 1 | CC(C)(C)n1cnc2ccc(-c3c[nH]c4ncc(-c5ccnc(N6CCOCC6)c5)nc34)cc21 [P-228, 4-[4-[7-(3-tert-butylbenzimidazol-5-yl)-5H-pyrrolo[2,3-b]pyrazin-2-yl]-2-pyridyl]morpholine]
27 | – | 0.0001 to 1 | CC(C)(C)n1cnc2ccc(-c3c[nH]c4ncc(-c5cnc(N6CCOCC6)nc5)cc34)cc21 [P-266, 4-[5-[3-(3-tert-butylbenzimidazol-5-yl)-1H-pyrrolo[2,3-b]pyridin-5-yl]pyrimidin-2-yl]morpholine]
28 | – | 0.0001 to 1 | CC(C)(C)n1cnc2ccc(-c3c[nH]c4ncc(-c5cccc(N6CCCS6(=O)=O)c5)nc34)cc21 [P-231, 2-[3-[7-(3-tert-butylbenzimidazol-5-yl)-5H-pyrrolo[2,3-b]pyrazin-2-yl]phenyl]-1,2-thiazolidine 1,1-dioxide]
29 | – | 0.0001 to 1 | N#Cc1cccc(-c2cnc3[nH]cc(-c4ccc5ncn(-c6ccc(F)c(Cl)c6)c5c4)c3c2)c1 [P-210, 3-[3-[3-(3-chloro-4-fluoro-phenyl)benzimidazol-5-yl]-1H-pyrrolo[2,3-b]pyridin-5-yl]benzonitrile]
